Measurements as given in US20040072139A1, “Photodynamic treatment and uv-b-irradiation of a thrombocyte suspension” (priority 2000, published 2004).

What was measured:
[1] = test system: VSV; assay type: cell-based, vesicular stomatitis virus
[2] = test system: CSFV; assay type: cell-based, classical swine fever virus
[3] = test system: BVDV; assay type: cell-based, bovine viral diarrhoea virus
[4] = test system: SFV; assay type: cell-based, Semliki Forest virus
[5] = test system: HIV-1; assay type: cell-based, human immunodeficiency virus, Type 1
[6] = test system: SHV-1; assay type: cell-based, suid herpesvirus 1
[7] = test system: SV-40; assay type: cell-based, simian virus-40
[8] = test system: T-lymphocytes; experiment: Inactivation of T lymphocytes in PC, ConA-stimulated BRDU proliferation assay; assay type: cell-based; conditions: for Absorption OD450 nm (BRDU incorporation rate): ConA activation, three days cultivation
[9] = test system: platelets; experiment: Collagen-induced aggregation of treated platelet suspensions
[10] = test system: platelets; experiment: Hypotonic shock reaction (HSR) of treated platelet suspensions
[11] = Experiment 1, Day 1 after treatment, thionine/light + UV-B 2.4 J/cm^2
[12] = Experiment 1, Day 1 after treatment, thionine/light alone
[13] = Experiment 1, Day 3 after treatment, thionine/light + UV-B 2.4 J/cm^2
[14] = Experiment 1, Day 3 after treatment, thionine/light alone
[15] = Experiment 2, Day 1 after treatment, thionine/light + UV-B 2.4 J/cm^2
[16] = Experiment 2, Day 1 after treatment, thionine/light alone
[17] = Experiment 2, Day 3 after treatment, thionine/light + UV-B 2.4 J/cm^2
[18] = Experiment 2, Day 3 after treatment, thionine/light alone
[19] = Experiment 3, Day 1 after treatment, thionine/light + UV-B 2.4 J/cm^2
[20] = Experiment 3, Day 1 after treatment, thionine/light alone
[21] = Experiment 3, Day 3 after treatment, thionine/light + UV-B 2.4 J/cm^2
[22] = Experiment 3, Day 3 after treatment, thionine/light alone
[23] = combined treatment with thionine/light and UV-B compared with photodynamic treatment alone

Compound: Cl.N=c1ccc2nc3ccc(N)cc3sc-2c1 [Thionine/light, Thionine]
- Infectivity (in words) [1]: still not completely eliminated
- Reduction of virus titre [1]: 4.4 log10TCID50
- Inactivation of virus (in words) [2]: completely inactivated
- Reduction of virus titre [2]: ≧5.5 log10TCID50
- Inactivation of virus (in words) [3]: completely inactivated
- Reduction of virus titre [3]: ≧4.9 log10TCID50
- Inactivation of virus (in words) [4]: completely inactivated
- Reduction of virus titre [4]: ≧5.2 log10TCID50
- Reduction of virus titre [5]: ≧5.7 log10TCID50
- Reduction of virus titre [6]: ≧3.6 log10TCID50
- Infectivity (in words) [7]: still not completely eliminated
- Reduction of virus titre [7]: 3.9 log10TCID50
- UV-B irradiation time required for complete inactivation of the cells ([8]; PC additionally treated with thionine/light (2 μM, 30 min), at least 4 min with UV-B alone): approximately 3 min
- Absorption OD450 nm (BRDU incorporation rate) ([8]; Th/light (2 μM, 30 min) then UV-B 0.6 J/cm^2): 1.020
- Absorption OD450 nm (BRDU incorporation rate) ([8]; Th/light (2 μM, 30 min) then UV-B 0.9 J/cm^2): 0.387
- Absorption OD450 nm (BRDU incorporation rate) ([8]; Th/light (2 μM, 30 min) then UV-B 1.2 J/cm^2): 0.240
- Influence on the proliferation of the cells (in words) ([8]; thionine/light alone (2 μM, 30 min)): no influence
- collagen-induced aggregation [9, 11]: 69.75%
- collagen-induced aggregation [9, 12]: 73.25%
- collagen-induced aggregation [9, 13]: 16.75%
- collagen-induced aggregation [9, 14]: 13.75%
- collagen-induced aggregation [9, 15]: 76.67%
- collagen-induced aggregation [9, 16]: 84.67%
- collagen-induced aggregation [9, 17]: 53.50%
- collagen-induced aggregation [9, 18]: 27.67%
- collagen-induced aggregation [9, 19]: 58.33%
- collagen-induced aggregation [9, 20]: 69.67%
- collagen-induced aggregation [9, 21]: 30.33%
- collagen-induced aggregation [9, 22]: 15.67%
- Influence on collagen-induced aggregation (in words) [9, 23]: neither the HSR (hypotonic shock reaction) nor the collagen-induced aggregation of platelet concentrates is substantially more strongly influenced
- HSR [10, 11]: 47.86%
- HSR [10, 12]: 65.49%
- HSR [10, 13]: 51.16%
- HSR [10, 14]: 49.16%
- HSR [10, 15]: 42.37%
- HSR [10, 16]: 56.24%
- HSR [10, 17]: 30.26%
- HSR [10, 18]: 52.61%
- HSR [10, 19]: 54.45%
- HSR [10, 20]: 69.30%
- HSR [10, 21]: 48.31%
- HSR [10, 22]: 55.49%
- Influence on HSR (in words) [10, 23]: neither the HSR (hypotonic shock reaction) nor the collagen-induced aggregation of platelet concentrates is substantially more strongly influenced
